# Measured values reported in patent US10864248B2, “Dab2 inhibitors for the prevention and treatment of cystic fibrosis” (Trustees of Dartmouth College, priority 2014, dated 2020).
# Where two headings read alike, the source gives them in different places. Peptide text beside a SMILES is read from it. * marks the point of attachment. Biotin = O=C1N[C@H]2[C@H](CS[C@H]2CCCCC(=O)*)N1; Ahx = NCCCCCC(=O)O
# Columns and labels:
# p67-isoform of Dab2 = p67-isoform of Dab2 (Homo sapiens (Human), UniProt P98082); assay: Peptide pull-down from CFBE cell lysates and western blot; assay type: binding; conditions: CFBE cell lysates, western blot
# Chain of p67-isoform of Dab2 (P98082 other isoform, or with tags, fused parts or gaps): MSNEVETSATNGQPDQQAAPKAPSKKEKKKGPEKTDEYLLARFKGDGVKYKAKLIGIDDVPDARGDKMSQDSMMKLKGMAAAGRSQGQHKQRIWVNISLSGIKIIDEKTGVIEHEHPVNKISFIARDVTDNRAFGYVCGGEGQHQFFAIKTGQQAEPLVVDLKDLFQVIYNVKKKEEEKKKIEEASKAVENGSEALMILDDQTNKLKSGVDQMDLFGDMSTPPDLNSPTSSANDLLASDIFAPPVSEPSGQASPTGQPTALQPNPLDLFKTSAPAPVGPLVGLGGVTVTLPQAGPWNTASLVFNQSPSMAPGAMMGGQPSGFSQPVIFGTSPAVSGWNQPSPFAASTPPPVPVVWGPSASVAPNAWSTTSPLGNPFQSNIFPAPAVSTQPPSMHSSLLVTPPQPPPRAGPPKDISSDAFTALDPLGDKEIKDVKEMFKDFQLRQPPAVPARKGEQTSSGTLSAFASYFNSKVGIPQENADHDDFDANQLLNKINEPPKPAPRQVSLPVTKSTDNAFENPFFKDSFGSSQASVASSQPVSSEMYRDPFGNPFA
# Protocol: (§1) Peptide Pull-down and Western Blotting. Streptavidin-paramagnetic particles (Promega) were washed twice with wash buffer (50 mM Tris pH 8.0, 150 mM NaCl, 2 mM EGTA, 2 mM EDTA, 5% glycerol, 1 mM DTT) and incubated with 20 μM BT-STA02 (N-terminally biotinylated STA02) for 1 hour on a rotator at 4° C. Beads were then washed twice with wash buffer and once with lysis buffer (50 mM Tris pH 8.0, 150 mM NaCl, 2 mM EGTA, 2 mM EDTA, 5% glycerol, 1 mM DTT, 1% IGEPAL, complete protease inhibitor tablet (Roche)) before incubation with cell lysate. CFBE cells were washed twice with cold PBS, incubated with lysis buffer for 20 minutes shaking at 4° C., scraped, passed through a 27G1/2 syringe, and spun at 13000 rpm for 15 minutes at 4° C. The supernatant was incubated with BT-STA02-coated beads for 2 hours on a rotator at 4° C. Beads were then washed twice with wash buffer and bound protein was eluted with Laemmli sample buffer (Bio-Rad) at 45° C. for 10 minutes. Samples were run on a 7.5% SDS-PAGE gel and probed with anti-Dab2 (BD Biosciences) or anti-p96 Dab2 (Epitomics).
# (§2) Since Dab2 is a multi-modular adaptor protein, it was determined whether STA02 binding to the DH domain occurred with the full-length (FL) protein and in the context of other cellular interacting partners. To this end, the binding of STA02 to FL-Dab2 from bronchial epithelial (CFBE) cell lysates was tested in a pull-down assay. […]
# p96-isoform of Dab2 = p96-isoform of Dab2 (Homo sapiens (Human), UniProt P98082); assay: as above; assay type: binding; conditions: CFBE cell lysates, western blot
# Chain of p96-isoform of Dab2 (P98082 whole entry, canonical isoform): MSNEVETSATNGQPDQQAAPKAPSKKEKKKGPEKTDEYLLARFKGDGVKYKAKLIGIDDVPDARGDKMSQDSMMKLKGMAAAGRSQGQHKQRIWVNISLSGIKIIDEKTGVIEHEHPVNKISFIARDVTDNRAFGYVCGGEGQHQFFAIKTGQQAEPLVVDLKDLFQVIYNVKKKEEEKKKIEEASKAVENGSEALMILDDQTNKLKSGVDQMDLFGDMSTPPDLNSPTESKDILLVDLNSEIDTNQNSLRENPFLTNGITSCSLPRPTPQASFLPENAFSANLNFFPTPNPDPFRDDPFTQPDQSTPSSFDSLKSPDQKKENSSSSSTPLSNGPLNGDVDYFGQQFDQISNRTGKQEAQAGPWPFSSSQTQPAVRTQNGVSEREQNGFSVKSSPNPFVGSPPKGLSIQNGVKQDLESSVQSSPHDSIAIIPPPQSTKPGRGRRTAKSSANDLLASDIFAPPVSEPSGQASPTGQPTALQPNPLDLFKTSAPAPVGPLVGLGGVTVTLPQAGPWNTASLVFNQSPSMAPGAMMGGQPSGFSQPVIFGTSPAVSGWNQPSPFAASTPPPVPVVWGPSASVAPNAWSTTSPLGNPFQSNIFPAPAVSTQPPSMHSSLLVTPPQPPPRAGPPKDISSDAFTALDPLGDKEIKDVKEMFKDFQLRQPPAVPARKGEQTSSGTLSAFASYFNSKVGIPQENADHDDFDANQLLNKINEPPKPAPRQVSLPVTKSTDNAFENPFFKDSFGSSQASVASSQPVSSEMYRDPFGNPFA
# Protocol: as §1, §2
# Dab2-DH domain [1] = target: T1, Dab2-DH domain (Homo sapiens (Human), UniProt P98082); assay: Fluorescence polarization competition assay to identify small molecule inhibitors; assay type: binding; parameters: key to Ki: n.a., not active; +, fluorescence change with FP; conditions: FP competition
# T1 sequence (P98082 33-191): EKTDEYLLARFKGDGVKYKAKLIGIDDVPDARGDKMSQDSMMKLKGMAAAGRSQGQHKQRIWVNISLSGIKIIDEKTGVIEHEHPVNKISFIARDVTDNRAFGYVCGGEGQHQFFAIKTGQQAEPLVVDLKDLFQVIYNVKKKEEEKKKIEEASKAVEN
# Protocol: Fluorescence Polarization Competition Assay to Identify Small Molecule Inhibitors. […] Unlabeled competitor peptide (STA02) or compound hits were serially diluted and mixed with the protein-reporter mix. Percent DMSO in all samples was 1%. Plates were mixed by vibration, centrifuged at 1200 g for 2 minutes and allowed to equilibrate at room temperature for 30-45 minutes before measurement. Fluorescence polarization was measured at an excitation wavelength of 470±5 nm and an emission wavelength of 525±20 nm. Data analysis and calculation of binding affinities were as described above.
# To test the validity of these hits on a smaller scale and to quantify the binding potencies (Ki values), an FP competition assay was carried out.
# CFBE cells = assay: Toxicity assay (LDH); assay type: cell-based, human; conditions: for toxicity, of maximum toxicity (1% TRITON): 3 or 12 hours
# Protocol: Toxicity and Cell Viability Assays. CFBE cells were seeded at 5×10^3 in 96-well plates. Cells were treated in fetal bovine serum (FBS)-free minimum essential medium (MEM, Gibco). Assays were performed and measured according to the CYTOTOX 96 Non-Radioactive cytotoxicity Assay (G1780) kit (Promega) and the […] 96 Aqueous One solution Cell proliferation Assay kit (Promega) instructions. Percent toxicity for the LDH assay was calculated as: […]
# A background signal of 0.2% DMSO in media from a well without cells was subtracted from all readings before the above-referenced calculations.
# ΔF508-CFTR = ΔF508-CFTR (Homo sapiens (Human), UniProt P13569, DEL508-508); assay: Short-circuit current (Isc), chloride currents in combination therapy; conditions: for chloride currents: 20 μM, in parallel with VX809 0.1 μM (48 hours) and Kalydeco (acutely), CFBE cells
# [2] = test system: subjects with the G551D mutation; conditions: 48-week clinical trial; cited from earlier work
# CF patients = conditions: in combination with KALYDECO; cited from earlier work
# Dab2-DH domain [3] = target: T1, Dab2-DH domain; assay: Fluorescence polarization competition binding of unlabeled peptides (reporter F*-STA02); conditions: STA02 compared to STA01
# Protocol: Fluorescence Polarization. Fluorescence polarization (FP) data were measured on a microplate reader (Tecan Infinite M1000, Mannedorf, Switzerland) at 27° C. […] Plates were mixed by vibration, centrifuged for 2 minutes at 1200 g to remove air bubbles and allowed to equilibrate for 30 minutes at room temperature before measurement. […] Unlabeled competitor peptides were serially diluted and mixed with the protein-reporter mix. […] [formula] where [P]tot=total protein concentration and Kd=equilibrium dissociation constant of [PL]. Competition isotherms were fit using a non-linear least-squares algorithm implemented in EXCEL using the SOLVER function. rexp was fit to: [formula] where the free protein concentration [P] in the presence of both the reporter and competitive inhibitor was calculated as a function of the total protein and ligand concentrations and the equilibrium dissociation constant Kd (known) and Ki (fit), respectively, by exact analytical solution of the resulting cubic equation (Wang, et al. (1995) Biotechnol. Prog. 11:558-64).
# Dab2-DH domain [4] = target: T1, Dab2-DH domain; assay: Isothermal titration calorimetry; assay type: binding
# Protocol: Isothermal Titration calorimetry. Dab2-DH protein was dialyzed versus 150 mM NaCl, 25 mM Tris pH 8.0, and 0.02% NaN3 or 150 mM NaCl, 25 mM NaH2PO4/Na2HPO4 pH 7.4, and 0.02% NaN3. Peptides were solubilized in recovered and degassed dialysis buffer. […] Thus, to maintain a constant DMSO concentration between the cell chamber (protein solution) and the syringe (peptide solution), 1-2% DMSO was added to the ITC-protein solution. Experiments were performed at 15, 25, or 35±0.2° C. on a MICROCAL VP-ITC calorimeter. A 2 μL peptide injection over 4.1 seconds preceded 30-10 μL injections over 300 seconds each. The system was allowed to equilibrate (reach baseline) between injections for 300 seconds while stirring at a speed of 300 rpm. ITC thermograms were fit to a single-site binding model using Origin software package v11. The ITC data were presented by showing the baseline-adjusted titration as heat flow versus time (top) and the peak-integrated concentration-normalized molar heat flow per injection versus the peptide: protein molar ratio (bottom). To account for the contribution of protein, peptide, and buffer protonation enthalpies to the binding enthalpies and consequently the binding constants, titrations in buffers with known and distinct heats of ionization (Tris and Phosphate buffers) were conducted.
# [5] = reporter F*-STA02, read-out: Ki
structure (smiles),measurement,setting,value
CSCC[C@H](NC(=O)[C@H](CC(N)=O)NC(=O)[C@H](CCC(=O)O)NC(=O)[C@H](CCC(N)=O)NC(=O)[C@@H]1CCCN1C(=O)[C@H](CCC(N)=O)NC(=O)[C@H](Cc1ccc(O)cc1)NC(=O)[C@H](CC(N)=O)NC(=O)[C@@H]1CCCN1C(=O)[C@H](CC(N)=O)NC(=O)[C@H](CC(=O)O)NC(=O)[C@H](Cc1ccccc1)NC(=O)CNC(=O)CNC(=O)[C@H](CO)NC(=O)CNC(=O)[C@H](CO)NC(=O)CCCCCNC(=O)CCCC[C@@H]1SC[C@@H]2NC(=O)N[C@@H]21)C(=O)N[C@@H](CCC(N)=O)C(=O)N[C@@H](C)C(=O)O [BT-STA02] ({Biotin-Ahx}-SGSGGFDNPNYQPQENMQA-OH; C-terminus assumed),binding of p67-isoform of Dab2,p67-isoform of Dab2,did not
same,binding of p96-isoform of Dab2,p96-isoform of Dab2,bound
"CN1CCc2cccc3c2[C@@H]1Cc1ccc(O)c(O)c1-3.Cl [Compound 1, S(+)-10,11-Dihydroxyaporphine Hydrochloride]",Ki,Dab2-DH domain [1]; [5],1920 nM
same,"toxicity, of maximum toxicity (1% TRITON)",CFBE cells; 40 μM,10%
same,toxicity,"CFBE cells; 40 μM, 24 hours",20-40%
same,chloride currents,ΔF508-CFTR,enhanced chloride currents
"C[C@]12CC[C@@H]3c4cc(O)c(O)cc4CC[C@H]3[C@@H]1CC[C@@H]2O [Compound 2, 2-Hydroxyestradiol]","toxicity, of maximum toxicity (1% TRITON)",CFBE cells; 40 μM,10%
"CC1(C)Cc2ccccc2-c2n[nH]c(=S)n21 [Compound 3, 5,5-dimethyl-5,6-dihydro [1,2,4]triazolo[3,4-a] isoquinoline-3(2H)-thione]",Ki,Dab2-DH domain [1]; [5],779 nM
same,Ki,Dab2-DH domain [1]; read-out: binding affinity (Ki),779 nM
same,toxicity,CFBE cells; 3 hours,no toxicity
same,"benefit compared to VX809 (ANOVA, P<0.05)",ΔF508-CFTR; 20 μM in combination with VX809 0.1 μM,statistically significant benefit
same,chloride currents,ΔF508-CFTR,enhanced chloride currents
"OCCN(CCO)c1nc(N2CCCCC2)c2nc(N(CCO)CCO)nc(N3CCCCC3)c2n1 [Compound 5, Dipyridamole]",Ki,Dab2-DH domain [1]; symbols,+
same,total fluorescence,Dab2-DH domain [1]; Ki not obtained,increased total fluorescence
"CC(C)(C)c1cc(C(C)(C)C)c(NC(=O)c2c[nH]c3ccccc3c2=O)cc1O [KALYDECO, N-(2,4-Di-tert-butyl-5-hydroxyphenyl)-4-oxo-1,4-dihydroquinoline-3-carboxamide]",drop in pulmonary exacerbations,[2],55%
same,improvement in lung function (predicted FEV1),[2],10.6%
same,reduction in sweat chloride,[2],48 mEq/L
"Cc1ccc(NC(=O)C2(c3ccc4c(c3)OC(F)(F)O4)CC2)nc1-c1cccc(C(=O)O)c1 [Lumacaftor, 3-{6-{[1-(2,2-difluoro-1,3-benzodioxo1-5-yl)cyclopropanecarbonyl]amino}-3-methylpyridin-2-yl}benzoic acid]",patients with >5% increase in FEV1,CF patients,55%
same,patients with >10% increase in FEV1,CF patients,25%
CSCC[C@H](NC(=O)[C@H](CC(N)=O)NC(=O)[C@H](CCC(=O)O)NC(=O)[C@H](CCC(N)=O)NC(=O)[C@@H]1CCCN1C(=O)[C@H](CCC(N)=O)NC(=O)[C@H](Cc1ccc(O)cc1)NC(=O)[C@H](CC(N)=O)NC(=O)[C@@H]1CCCN1C(=O)[C@H](CC(N)=O)NC(=O)[C@H](CC(=O)O)NC(=O)[C@H](Cc1ccccc1)NC(=O)CNC(=O)[C@H](CC(N)=O)NC(=O)[C@@H](N)CCC(N)=O)C(=O)N[C@@H](CCC(N)=O)C(=O)N[C@@H](C)C(=O)O [STA02],increase in binding affinity,Dab2-DH domain [3],2 fold
same,net release of protons during binding (NH+),Dab2-DH domain [4]; Tris and phosphate buffers,0.04 per mole
same,ΔH,"Dab2-DH domain [4]; Tris buffer, 25° C.",-20.7 ± 1.45 kcal/mol
same,ΔS,"Dab2-DH domain [4]; Tris buffer, 25° C.",−37.8 cal/mol/K
same,TΔS,"Dab2-DH domain [4]; estimated, 37° C.",-16.1 kcal/mol
same,ΔG,"Dab2-DH domain [4]; estimated, 37° C.",-8.9 kcal/mol
same,ΔH,"Dab2-DH domain [4]; estimated, 37° C.",-25.0 kcal/mol
same,"change of heat capacity, ΔCp","Dab2-DH domain [4]; from ΔH at 15, 25, and 35° C.",−320 cal/mol/K
